From patent US4492694A, “Indolylglycyl cephalosporin derivatives” (Eli Lilly and Company, priority 1983, dated 1985)
In brackets after ≈: the same amount, converted by molar mass. Counter-ions that a name gives are not always drawn. Like-named read-outs stand apart in the source and are kept apart here.

How the values were obtained:
Staph. aureus = experiment: Agar dilution MIC; assay type: cell-based; settings: Staphylococcus aureus
Enterobacter = experiment: Agar dilution MIC; assay type: cell-based; settings: for MIC: Enterobacter
Salmonella = experiment: Agar dilution MIC; assay type: cell-based
Description: (§1) A typical and preferred compound provided by this invention is 7-(3-indolylglycylamido)-3-methyl-3-cephem-4-carboxylic acid, the compound illustrated in Example 2. The antibacterial activity of this compound and others of the invention has been determined in standard in vitro agar dilution assays against a variety of gram positive and gram negative microorganisms. The following Table presents typical minimum inhibitory concentrations (MIC's) in μg/ml for several compounds of the invention when evaluated against the indicated microorganisms. MIC's for several known compounds are also presented for comparison.

Klebsiella = experiment: Agar dilution MIC; assay type: cell-based
Strep. A = experiment: Agar dilution MIC; assay type: cell-based; settings: strain C203
[1] = Recovery in urine and bile after subcutaneous dose; assay type: in vivo; settings: rat, sc, rats, 20 mg/kg
Experimental: (§2) For example, when 7-(3-indolylglycylamido)-3-methyl-3-cephem-4-carboxylic acid was administered to rats at an intravenous dose of 20 mg/kg, the plasma concentration after one hour was 15.0 μg/ml, and after four hours, 6.0 μg/ml. About 60% of the above compound was recovered in the urine of rats following a 20 mg/kg subcutaneous dose. Less than 5% was recovered from the bile.

Strep. D = experiment: Agar dilution MIC; assay type: cell-based; settings: read-out: Agar Dilution MIC
Strep PN = experiment: Agar dilution MIC; assay type: cell-based; settings: strain PARK
E. coli = experiment: Agar dilution MIC; assay type: cell-based; settings: Escherichia coli
[2] = Pharmacokinetics, plasma concentration after intravenous dose; assay type: in vivo; settings: rat, rats, 20 mg/kg
Experimental: as §2

Staph. epi = experiment: Agar dilution MIC; assay type: cell-based; settings: for Agar Dilution MIC: strain EPI2
Description: as §1

Shig. sonn. = experiment: Agar dilution MIC; assay type: cell-based; settings: strain N9
[3] = strain V41, read-out: Agar Dilution MIC
[4] = strain X68, read-out: Agar Dilution MIC
[5] = read-out: Agar Dilution MIC, strain X514
[6] = strain 1335, read-out: Agar Dilution MIC
[7] = strain X1.1, read-out: Agar Dilution MIC
[8] = strain X26, read-out: Agar Dilution MIC
[9] = read-out: Agar Dilution MIC, strain S13E
[10] = strain X400, read-out: Agar Dilution MIC
[11] = strain EPI1, read-out: Agar Dilution MIC

Compound	MIC (Staph. aureus; read-out: Agar Dilution MIC) [µg/mL]	MIC (Staph. aureus; [3]) [µg/mL]	MIC (Enterobacter; [4]) [µg/mL]	MIC (Salmonella; [5]) [µg/mL]	MIC (Salmonella; [6]) [µg/mL]	MIC (Staph. aureus; [7]) [µg/mL]	MIC (Strep. A) [µg/mL]	MIC (Strep. D; strain 9960) [µg/mL]	MIC (Klebsiella; [8]) [µg/mL]	MIC (Strep PN) [µg/mL]	MIC (E. coli; strain EC14) [µg/mL]	MIC (E. coli; strain N10) [µg/mL]	MIC (E. coli; strain TEM) [µg/mL]	MIC (Staph. aureus; [9]) [µg/mL]	MIC (Staph. aureus; [10]) [µg/mL]	Agar Dilution MIC (Enterobacter; strain EB17) [µg/mL]	MIC (Staph. epi; [11]) [µg/mL]	Agar Dilution MIC (Staph. epi) [µg/mL]	MIC (Strep. D; strain X66) [µg/mL]	MIC (Klebsiella; [4]) [µg/mL]	other results
CC1(C)S[C@@H]2[C@H](NC(=O)[C@H](N)c3ccccc3)C(=O)N2[C@H]1C(=O)O [Ampicillin, reference compound]	0.125 (≈ 0.358 µM)	8 (≈ 22.9 µM)	8 (≈ 22.9 µM)	1 (≈ 2.86 µM)	4 (≈ 11.4 µM)	–	–	–	–	–	–	–	–	–	–	–	–	–	–	–	–
CC1=C(C(=O)O)N2C(=O)[C@@H](NC(=O)[C@H](N)c3ccccc3)[C@H]2SC1 [Cephalexin, reference compound]	–	–	0.03 (≈ 0.0864 µM)	0.6 (≈ 1.73 µM)	0.25 (≈ 0.72 µM)	2 (≈ 5.76 µM)	–	–	–	–	–	–	–	–	–	–	–	–	–	–	MIC (Klebsiella; read-out: Agar Dilution MIC): 2 µg/mL (≈ 5.76 µM); MIC (Enterobacter; read-out: Agar Dilution MIC, strain C32): 0.125 µg/mL (≈ 0.36 µM); MIC (Enterobacter; read-out: Agar Dilution MIC, strain EB17): 0.06 µg/mL (≈ 0.173 µM)
CC1=C(C(=O)O)N2C(=O)[C@@H](NC(=O)[C@H](N)c3c[nH]c4ccccc34)C2SC1 (stereo partly drawn) [Ex. 2, D-7-(3-Indolylglycylamido)-3-methyl-3-cephem-4-carboxylic acid trifluoroacetate]	–	8	–	32	128	4	0.25	16	16	0.5	32	32	16	32	64	> 128	16	16	–	–	dose excreted ([1]; bile, read-out: recovered from the bile): < 5%; dose excreted ([1]; urine, read-out: recovered in the urine): ~60%; MIC (Strep. D): 32 µg/mL; concentration at 4 h ([2]; four hours): 6000 ng/mL; concentration at 1 h ([2]; one hour): 15000 ng/mL; MIC (Enterobacter; read-out: Agar Dilution MIC, strain X68): 32 µg/mL; MIC (Enterobacter; strain C32, read-out: Agar Dilution MIC): > 128 µg/mL
N[C@@H](C(=O)N[C@@H]1C(=O)N2C(C(=O)O)=C(Cl)CSC12)c1c[nH]c2ccccc12 (stereo partly drawn) [Ex. 3, D-7-(3-indolylglycylamido)-3-chloro-3-cephem-4-carboxylic acid trifluoroacetate]	32	–	> 128	16	16	4	0.5	16	4	0.25	8	16	16	8	64	> 128	16	–	16	16	Agar Dilution MIC (Enterobacter; strain C32): > 128 µg/mL; MIC (Staph. epi; read-out: Agar Dilution MIC, strain EPI2): 32 µg/mL
COC1=C(C(=O)O)N2C(=O)[C@@H](NC(=O)[C@H](N)c3c[nH]c4ccccc34)C2SC1 (stereo partly drawn) [Ex. 4, D-7-(3-Indolylglycylamido)-3-methoxy-3-cephem-4-carboxylic acid]	32 (≈ 79.5 µM)	–	> 128	16 (≈ 39.8 µM)	32 (≈ 79.5 µM)	4 (≈ 9.94 µM)	0.25 (≈ 0.621 µM)	16 (≈ 39.8 µM)	16 (≈ 39.8 µM)	0.5 (≈ 1.24 µM)	8 (≈ 19.9 µM)	16 (≈ 39.8 µM)	32 (≈ 79.5 µM)	8 (≈ 19.9 µM)	64 (≈ 159 µM)	> 128	16 (≈ 39.8 µM)	16	64 (≈ 159 µM)	16 (≈ 39.8 µM)	MIC (Shig. sonn.): 32 µg/mL (≈ 79.5 µM); Agar Dilution MIC (Enterobacter; strain C32): > 128 µg/mL
